According to patent publication US20220041647A1, “ESTRA-1,3,5(10)-TRIENE COMPOUNDS CONDENSED IN POSITION 16(17) WITH A PYRAZOLE RING AS INHIBITORS OF 17-HSD1” (FORENDO PHARMA LTD, priority 2018, published 2022):

How the values were obtained:
[1] = molecular target: T1, recombinant human 17β-HSD1 (Homo sapiens, UniProt P14061); assay: Inhibition of recombinant human 17β-HSD1 (estrone to estradiol conversion, HPLC/radioactivity); type: biochemical; settings: compound 100 nM; 30 nM estrone, 1 mM NADPH, 30 min RT
T1 construct: made in house; host or cells: Sd9 (Sf9) insect cells, baculovirus (Bac to Bac Expression System)
T1 sequence (P14061 1-328): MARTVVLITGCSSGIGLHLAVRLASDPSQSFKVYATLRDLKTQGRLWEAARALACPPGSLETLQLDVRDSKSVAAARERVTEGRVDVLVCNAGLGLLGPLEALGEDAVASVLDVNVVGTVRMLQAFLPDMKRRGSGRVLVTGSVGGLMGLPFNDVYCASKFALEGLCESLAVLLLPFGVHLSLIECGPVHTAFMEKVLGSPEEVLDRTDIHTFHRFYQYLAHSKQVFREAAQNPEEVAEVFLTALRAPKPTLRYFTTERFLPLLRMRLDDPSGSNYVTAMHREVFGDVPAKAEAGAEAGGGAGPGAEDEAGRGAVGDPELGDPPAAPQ
Method in brief: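 Microsomal human 17β-HSD1 from Sf9 baculovirus (1 μg/ml) was incubated 30 min at RT in 20 mM KH2PO4 pH 7.4 with 30 nM ^3H-estrone, 1 mM NADPH and inhibitor at 1 μM or 0.1 μM (1% DMSO). Estrone and estradiol were separated by HPLC with radioactivity detection. % inhibition = 100 − % conversion relative to uninhibited control.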

[2] = tested on: HSD1 enzyme that is expressed in rabbit placenta tissue; assay: Inhibition of E1 to E2 conversion in rabbit placenta tissue homogenate; type: biochemical; settings: compound 100 nM, 30 nM estrone, 1 mM β-NADPH, 30 min
Method in brief: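 Rabbit placenta homogenate (20 mM KH2PO4, 1 mM EDTA, pH 7.4) incubated 30 min with 1 mM β-NADPH, 30 nM estrone plus 5 nM [3H]-estrone tracer, and inhibitor at 1 μM or 0.1 μM (1% DMSO). Stopped with TCA; estrone and estradiol resolved by HPLC with scintillation counting; % inhibition = 100 − % conversion relative to uninhibited control.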

Compound	inhibition at 0.1 µM [1] [%]	Rabbit placenta inhibition % @100 nM [2] [%]
C[C@]12CCC3c4cccc(F)c4CCC3C1[C@H](CCC(=O)Nc1ccc(N3CCOCC3)cn1)c1c[nH]nc12 (stereo partly drawn) [Compound 39, 3-((8aS,12S)-3-fluoro-8a-methyl-1,2,6b,7,8,8a,10,12,12a,12b-decahydronaphtho[2′,1′:4,5]indeno[1,2-c]pyrazol-12-yl)-N-(5-morpholinopyridin-2-yl)propanamide]	91	69
C[C@]12CCC3c4cccc(F)c4CCC3C1[C@H](CCC(=O)Nc1cc3c([nH]c1=O)CCCC3)c1c[nH]nc12 (stereo partly drawn) [Compound 30, 3-((8aS,12S)-3-fluoro-8a-methyl-1,2,6b,7,8,8a,10,12,12a,12b-decahydronaphtho[2′,1′:4,5]indeno[1,2-c]pyrazol-12-yl)-N-(2-oxo-1,2,5,6,7,8-hexahydroquinolin-3-yl)propanamide]	95	53
COc1ccnc(NC(=O)CC[C@@H]2c3c[nH]nc3[C@@]3(C)CCC4c5ccccc5CCC4C23)c1 (stereo partly drawn) [Compound 165, N-(4-methoxypyridin-2-yl)-3-((8aS,12S)-8a-methyl-1,2,6b,7,8,8a,10,12,12a,12b-decahydronaphtho[2′1′:4,5]indeno[1,2-c]pyrazol-12-yl)propanamide]	85	34
